Results as given in ChEMBL document CHEMBL4000253 (Bioorg Med Chem, 2017).
Each block holds one molecule with its values, some of them ahead of it. Calls of active or inactive are those of the source. The rule behind the calls is not given here.

Key:
Mushroom tyrosinase [1] = target: T1, Mushroom tyrosinase (Agaricus bisporus, UniProt O42713+Q00024+C7FF04+C7FF05); assay: Inhibition of mushroom tyrosinase using L-DOPA as substrate assessed as decrease in dopachrome formation preincubated for 10 mins followed by substrate addition by spectrophotometric method
Mushroom tyrosinase [2] = target: T1, Mushroom tyrosinase; assay: Competitive inhibition of mushroom tyrosinase using 0.3 to 1 mM L-DOPA as substrate assessed as decrease in dopachrome formation preincubated for 10 mins followed by substrate addition by Lineweaver-Burk plot analysis
B16-F10 [3] = assay: Cytotoxicity against mouse B16F10 cells assessed as decrease in cell viability at <50 uM after 48 hrs by MTT assay; format: cell-based; conditions: b16-f10, 48 h
B16-F10 [4] = assay: Cytotoxicity against mouse B16F10 cells assessed as decrease in cell viability at >50 uM after 48 hrs by MTT assay; format: cell-based; conditions: b16-f10, 48 h
[5] = target: T2, Mushroom tyrosinase (Agaricus bisporus) (UniProt O42713+Q00024+C7FF04+C7FF05); assay: Potency index, ratio of kojic acid IC50 to test compound IC50 for mushroom tyrosinase
[6] = target: T3, Tyrosinase (Mus musculus) (UniProt P11344); assay: Inhibition of tyrosinase in alpha-MSH-stimulated mouse B16F10 cells up to 50 uM preincubated for 48 hrs followed by L-DOPA addition
T3 sequence (whole entry): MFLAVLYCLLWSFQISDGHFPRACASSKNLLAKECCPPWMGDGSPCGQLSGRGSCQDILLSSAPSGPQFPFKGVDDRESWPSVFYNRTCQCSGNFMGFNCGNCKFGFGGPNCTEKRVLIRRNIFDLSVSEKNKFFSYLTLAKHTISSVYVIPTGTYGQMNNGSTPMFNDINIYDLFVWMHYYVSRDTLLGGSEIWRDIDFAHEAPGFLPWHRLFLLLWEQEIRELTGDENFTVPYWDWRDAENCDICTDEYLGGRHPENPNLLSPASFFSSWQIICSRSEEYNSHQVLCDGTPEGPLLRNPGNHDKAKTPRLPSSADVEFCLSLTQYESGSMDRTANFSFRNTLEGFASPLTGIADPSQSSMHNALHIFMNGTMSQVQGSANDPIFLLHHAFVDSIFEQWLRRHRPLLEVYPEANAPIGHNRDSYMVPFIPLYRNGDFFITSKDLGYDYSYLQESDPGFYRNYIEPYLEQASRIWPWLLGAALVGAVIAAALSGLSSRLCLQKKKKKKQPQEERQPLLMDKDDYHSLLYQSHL

[7] = target: T3, Tyrosinase (Mus musculus); assay: Inhibition of tyrosinase in alpha-MSH-stimulated mouse B16F10 cells assessed as decrease in melanin content up to 50 uM after 48 hrs
[8] = target: T2, Mushroom tyrosinase (Agaricus bisporus); assay: Uncompetitive inhibition of mushroom tyrosinase using 0.3 to 1 mM L-DOPA as substrate assessed as decrease in dopachrome formation preincubated for 10 mins followed by substrate addition by Lineweaver-Burk plot analysis
[9] = target: T3, Tyrosinase (Mus musculus); assay: Inhibition of tyrosinase in alpha-MSH-stimulated mouse B16F10 cells preincubated for 48 hrs followed by L-DOPA addition
[10] = target: T3, Tyrosinase (Mus musculus); assay: Inhibition of tyrosinase in alpha-MSH-stimulated mouse B16F10 cells assessed as decrease in melanin content after 48 hrs
[11] = target: T3, Tyrosinase (Mus musculus); assay: Inhibition of tyrosinase in alpha-MSH-stimulated mouse B16F10 cells assessed as residual activity at 10 uM preincubated for 48 hrs followed by L-DOPA addition relative to control
[12] = target: T3, Tyrosinase (Mus musculus); assay: Inhibition of tyrosinase in alpha-MSH-stimulated mouse B16F10 cells assessed as residual activity at 25 uM preincubated for 48 hrs followed by L-DOPA addition relative to control
[13] = target: T3, Tyrosinase (Mus musculus); assay: Inhibition of tyrosinase in alpha-MSH-stimulated mouse B16F10 cells assessed as residual activity at 50 uM preincubated for 48 hrs followed by L-DOPA addition relative to control
[14] = target: T3, Tyrosinase (Mus musculus); assay: Inhibition of tyrosinase in alpha-MSH-stimulated mouse B16F10 cells assessed as decrease in melanin content at 10 to 50 uM after 48 hrs
[15] = target: T3, Tyrosinase (Mus musculus); assay: Inhibition of tyrosinase in alpha-MSH-stimulated mouse B16F10 cells at 10 uM preincubated for 48 hrs followed by L-DOPA addition relative to control
[16] = target: T3, Tyrosinase (Mus musculus); assay: Inhibition of tyrosinase in alpha-MSH-stimulated mouse B16F10 cells at 25 uM preincubated for 48 hrs followed by L-DOPA addition relative to control
[17] = target: T3, Tyrosinase (Mus musculus); assay: Inhibition of tyrosinase in alpha-MSH-stimulated mouse B16F10 cells at 10 to 50 uM preincubated for 48 hrs followed by L-DOPA addition and subsequent incubation in dark measured after 1 hr by zymographic method

Compound: O=c1oc2c(O)c(O)ccc2cc1-c1cc(Br)cs1
IC50 (Mushroom tyrosinase [1]): 259.03 µM

Compound: O=c1oc2c(O)cccc2cc1-c1cc(Br)cs1
IC50 (Mushroom tyrosinase [1]): > 1000 µM

Compound: O=c1oc2cc(O)cc(O)c2cc1-c1ccccc1
IC50 (Mushroom tyrosinase [1]): 408.37 µM

Compound: O=c1oc2cc(O)cc(O)c2cc1-c1cc(Br)cs1
IC50 (Mushroom tyrosinase [1]): 0.38 µM
Kis [8]: 0.128 µM
Activity (B16-F10 [3]): Non-Toxic
Activity (B16-F10 [4]): Toxic
Ratio IC50 [5]: 50
inhibition [9]: Dose-dependent effect
inhibition [10]: Dose-dependent effect
Activity [11]: 94.3%
Activity [12]: 78.5%
Activity [13]: 27.7%
inhibition [14]: Active

Compound: O=c1oc2cc(O)cc(O)c2cc1-c1ccsc1
IC50 (Mushroom tyrosinase [1]): 0.19 µM
inhibition [6]: inactive
inhibition [7]: inactive

Compound: O=c1oc2cc(O)cc(O)c2cc1-c1ccc(Br)cc1
IC50 (Mushroom tyrosinase [1]): 1.05 µM
inhibition [9]: Dose-dependent effect
inhibition [10]: Dose-dependent effect
inhibition [15]: 18.1%
inhibition [16]: 51.8%
inhibition [14]: Active
inhibition [17]: Active

Now from value to molecule, other results behind:

IC50 (Mushroom tyrosinase [1]): 0.15 µM
Ki (Mushroom tyrosinase [2]): 0.24 µM
Ratio IC50 [5]: 120
inhibition [6]: inactive
inhibition [7]: inactive
Compound: O=c1oc2cc(O)cc(O)c2cc1-c1cccs1
Activity (B16-F10 [3]): Non-Toxic
Activity (B16-F10 [4]): Toxic

IC50 (Mushroom tyrosinase [1]): > 1000 µM
Compound: O=c1oc2cc(O)ccc2cc1-c1cccs1

IC50 (Mushroom tyrosinase [1]): > 1000 µM
Compound: COc1ccc2oc(=O)c(-c3cccs3)cc2c1

IC50 (Mushroom tyrosinase [1]): > 1000 µM
Compound: O=c1oc2ccc(O)cc2cc1-c1cccs1

IC50 (Mushroom tyrosinase [1]): > 1000 µM
Compound: COc1ccc2oc(=O)c(-c3cc(Br)cs3)cc2c1

IC50 (Mushroom tyrosinase [1]): 31.8 µM
Compound: O=c1oc2cc(O)ccc2cc1-c1cc(Br)cs1
